# Experimental data reported in paper PMC11653397, “Elucidating the Metabolism of Chiral PCB95 in Wildtype and Transgenic Mouse Models with Altered Cytochrome P450 Enzymes Using Intestinal Content Screening” (Chemical Research in Toxicology, 2024).
# Several values for one entry are separate records, joined by “and”; a condition that tells them apart may be missing. Equal values may be shown once. Read-outs that look alike come from different tables or passages of the source.
# What was measured:
# [1] = GC-MS/MS levels of PCB95 and total hydroxylated metabolites in intestinal content of orally exposed mice; conditions: for concentration at 24 h: mouse, intestinal content (distal colon and rectum), po, 1 mg/kg
# Method: The intestinal content samples used in this study were generated as part of a published study of the atropselective disposition of PCB95 and its hydroxylated metabolites in mice.[48] […] This PCB dose is frequently used in PCB developmental neurotoxicity studies in rodent models.[21],[49]−[52] Blank tissue samples to assess the background contamination with PCB95 were generated in parallel by administering corn oil alone to mice (1–3 mice per group). The animals were euthanized 24 h after exposure, and intestinal content samples from the dissected distal colon and rectum were collected. Samples were stored at −80 °C in separate plastic bags and shipped on dry ice to the University of Iowa for analysis.
# PCB95 and total OH-PCB95 metabolite levels were determined in intestinal content samples after deconjugation of sulfate and glucuronide conjugates using published methods with modifications.[53] Briefly, intestinal content samples (50 ± 22 mg, n = 38) were homogenized with a TissueRuptor (Qiagen, Hilden, Germany) in 3 mL of 0.2 M sodium acetate buffer (pH 5) in glass tubes and spiked with 4-PCB52 sulfate (100 ng in DMSO) as a surrogate standard. After adding 50 μL of sulfatase (type H-2 from Helix pomatia, Sigma-Aldrich, Burlington, MA, USA), the samples were kept at 37 °C for 16 h in a shaking water bath. Samples were quenched with 1 mL of 6 M HCl, and the surrogate standards (50 ng of PCB117 in isooctane and 50 ng of 4′-159 in methanol) were added to the incubation system. Subsequently, 5 mL of 2-propanol and 5 mL of a 1:1 hexane–MTBE mixture (v/v) were added. The samples were inverted for 5 min and centrifuged at 1690g for 5 min to facilitate the phase separation. Next, the organic phases were transferred to new glass tubes with 3 mL of 1% KCl solution, the aqueous phases were re-extracted with 3 mL of hexane, and the organic phases were combined with the above extract. After inverting and centrifugation, the organic phases were collected, and the aqueous KCl phases were re-extracted with 3 mL of hexane. The combined extracts were evaporated to near dryness using a Savant SpeedVac SPD210 vacuum concentrator (Thermo Scientific, Waltham, MA, USA) coupled with an RVT5105 refrigerated vapor trap (Thermo Scientific, Waltham, MA, USA), and each sample was reconstituted with 0.5 mL of hexane.
# Five drops of methanol and 0.5 mL of diazomethane (about 5 mmol) in diethyl ether were added to the intestinal content extracts to derivatize the OH-PCBs.[43] The samples were stored at 4 °C for approximately 16 h for derivatization, and excess diazomethane was removed under a gentle stream of nitrogen in a fume hood. The extract was reconstituted to 0.5 mL of dichloromethane and was loaded onto a glass SPE cartridge filled with 2 g of acidified silica gel (silica gel/H2SO4, 2:1, w/w) with 0.2 g of deactivated silica gel on the bottom.[14] The PCB and metabolites were eluted from the SPE cartridge with 14 mL of dichloromethane; the eluent was concentrated with a Savant SpeedVac SPD210 vacuum concentrator (Thermo Scientific) to near dryness, and the solvent was exchanged to 4 mL of hexane. The extracts were treated with 4 mL of concentrated sulfuric acid for further lipid removal.[14] The organic phase was concentrated to near dryness with a Savant SpeedVac SPD210 vacuum concentrator (Thermo Scientific) and spiked with an internal standard (50 ng of PCB204 in isooctane) for gas chromatographic quantification of PCB95 and its hydroxylated metabolites (as methylated derivatives).
# PCB95 and metabolite determinations were conducted on an Agilent 7890B gas chromatograph equipped with an Agilent 7000D Triple Quad and an Agilent 7693 autosampler in the multiple reaction monitoring setting (GC–MS/MS).[14] Gas chromatographic separations were performed with an SPB-Octyl capillary column (30 m length, […], 0.25 μm film thickness; Supelco, Bellefonte, PA, USA).
# [2] = mouse hepatic microsomes; cited from earlier work
# CYP2A6 = system: CYP2A6; design: method as in PMID 30576102, PMID 27989147; conditions: pooled human liver microsomes, recombinant cytochrome P450 enzymes; cited from earlier work
# [3] = design: method as in doi:10.1016/0045-6535(75)90032-6; conditions: mice exposed orally to PCB95; cited from earlier work
# [4] = design: method as in doi:10.1016/0045-6535(75)90032-6; conditions: rats exposed orally to PCB95; cited from earlier work
# [5] = rat hepatic microsomes; cited from earlier work
# [6] = Atropselective GC-ECD analysis (enantiomeric fraction) of PCB95 in intestinal content; format: in vivo, mice; conditions: for Enantiomeric fraction (EF) of PCB95 residues in the intestinal content: EF=AE1/(AE1+AE2), racemic standard EF 0.498±0.004, oral 1.0 mg/kg bw, 24 h
# Method: Atropselective analyses of PCB95 were performed using an Agilent 7890A gas chromatograph with a ^63Ni-μECD detector and a Chirasil-Dex CB capillary column (25 m length, 250 μm inner diameter, 0.25 μm film thickness; Agilent, Santa Clara, CA, USA).[52] The following temperature program was used: 50 °C, hold for 1 min, 10 °C/min to 150 °C, hold for 65 min, 15 °C/min to 200 °C, and hold for 15 min. The injector and detector temperatures were 250 °C. Helium was used as carrier gas with a flow rate of 3.0 mL/min; argon-methane 5% was used as makeup gas with a 60 mL/min flow rate. The enantiomeric fraction (EF) values were calculated with the valley drop method[55] as EF = AE1/(AE1 + AE2), where AE1 and AE2 are the peak area of the first (E1) and the second eluting (E2) atropisomers, respectively.
# [7] = female, CYP2A6-transgenic/Cyp2abfgs-null (KI)
# [8] = male, CYP2A6-transgenic/Cyp2abfgs-null (KI)
# [9] = two-way ANOVA with Bonferroni correction
Structure (SMILES),"concentration at 24 h [1, 7]","concentration at 24 h ([1]; female, Cyp2abfgs-null (KO))",concentration at 24 h ([1]; female),"concentration at 24 h [1, 8]","concentration at 24 h ([1]; male, Cyp2abfgs-null (KO))",concentration at 24 h ([1]; male),Rank among PCB95 metabolites formed by liver microsomes [2],also measured
"Oc1c(Cl)cc(Cl)c(-c2cc(Cl)ccc2Cl)c1Cl [3-103, 2,4,6-trichloro-3-(2,5-dichlorophenyl)phenol]",17 ± 11 ng/g,14 ± 7 ng/g,14 ± 6 ng/g,6 ± 6 ng/g,6 ± 2 ng/g,7 ± 4 ng/g,–,–
"Oc1cc(Cl)c(-c2c(Cl)ccc(Cl)c2Cl)cc1Cl [4'-95, 2,2′,3,5′,6-pentachlorobiphenyl-4′-ol]",764 ± 831 ng/g,414 ± 254 ng/g,356 ± 192 ng/g,298 ± 240 ng/g,447 ± 159 ng/g,452 ± 269 ng/g,minor metabolites,Rank among PCB95 metabolites formed by human liver microsomes and recombinant P450 (CYP2A6) (CYP2A6): major metabolite
"Oc1c(O)c(Cl)c(-c2cc(Cl)ccc2Cl)c(Cl)c1Cl [4,5-95, 3,4,6-trichloro-5-(2,5-dichlorophenyl)benzene-1,2-diol]",1670 ± 1290 ng/g,527 ± 255 ng/g,1090 ± 492 ng/g,570 ± 376 ng/g,1030 ± 507 ng/g,1410 ± 574 ng/g,–,"Rank among OH-PCB95 metabolites in intestinal content ([1]; all intestinal content samples, all exposure groups): major metabolite"
"Oc1cc(Cl)c(-c2cc(Cl)ccc2Cl)c(Cl)c1Cl [4-95, 2,2′,3,5′,6-pentachlorobiphenyl-4-ol]",434 ± 352 ng/g,192 ± 70 ng/g,248 ± 109 ng/g,160 ± 134 ng/g,177 ± 68 ng/g,238 ± 134 ng/g,minor metabolites,–
"Oc1cc(Cl)c(Cl)c(-c2cc(Cl)ccc2Cl)c1Cl [5-95, 2,2′,3,5′,6-pentachlorobiphenyl-5-ol]",934 ± 790 ng/g,359 ± 147 ng/g,544 ± 295 ng/g,300 ± 256 ng/g,333 ± 123 ng/g,424 ± 279 ng/g,major PCB95 metabolite,Rank among PCB95 metabolites in feces [3]: major metabolite; Rank among PCB95 metabolites in feces [4]: major metabolite; Rank among PCB95 metabolites formed by hepatic microsomes [5]: major PCB95 metabolite
"Clc1ccc(Cl)c(-c2c(Cl)ccc(Cl)c2Cl)c1 [PCB95, 2,2′,3,5′,6-pentachlorobiphenyl]",110 ± 95 ng/g,26 ± 20 ng/g,26 ± 18 ng/g,33 ± 48 ng/g,139 ± 265 ng/g,39 ± 40 ng/g,–,"PCB95 levels in the intestinal content, FKI vs MKI mice [1, 9]: higher; PCB95 levels in the intestinal content, MKO vs MKI mice [1, 9]: significantly higher; Enantiomeric fraction (EF) of PCB95 residues in the intestinal content ([6]; FKI (n=4)): 0.44±0.03; Enantiomeric fraction (EF) of PCB95 residues in the intestinal content ([6]; FKO (n=6)): 0.44±0.05; Enantiomeric fraction (EF) of PCB95 residues in the intestinal content ([6]; FWT (n=6), 1 mg/kg): 0.39±0.05 and 0.39; Enantiomeric fraction (EF) of PCB95 residues in the intestinal content ([6]; MKI (n=5)): 0.40±0.03; Enantiomeric fraction (EF) of PCB95 residues in the intestinal content ([6]; MKO (n=7), 1 mg/kg): 0.45±0.04 and 0.45; Enantiomeric fraction (EF) of PCB95 residues in the intestinal content ([6]; MWT (n=5)): 0.41±0.05"
Clc1ccc(Cl)c(-c2c(Cl)ccc(Cl)c2Cl)c1 [aS-PCB95],–,–,–,–,–,–,–,"Atropisomeric enrichment in intestinal content ([6]; all intestinal content samples, irrespective of sex and genotype): enriched"
